Laboratory results published in patent US20260007613A1, “LONG-ACTING LOW-TOXICITY NOVEL CATIONIC LIPID COMPOUNDS AND COMPOSITION THEREOF” (BEIJING YOUCAREKECHUANG PHARMACEUTICAL TECHNOLOGY CO., LTD., priority 2023, published 2026).

Key:
[1] = test system: female BALB/C mice; assay: Live imaging in mice: protein expression of Fluc-mRNA delivered by LNP formulations; type: in vivo
Method: In addition, the protein expression and duration of mRNA in mice delivered by the cationic lipid delivery carriers designed were also verified.
(§1) The LNP formulation containing […] Fluc-mRNA was injected intramuscularly into female BALB/C mice aged 4 to 6 weeks old and weighed 17 to 19 g, and the mice were intraperitoneally injected with fluorescent imaging substrate at specific time points after administration (6 h, 24 h, 48 h and 7 d), where the mice were free to move for 5 minutes, and then the average radiation intensity (corresponding to fluorescence expression intensity) of the protein expression of the mRNA carried by the LNP in the mice was detected by the IVIS Spectrum small animal live imaging device.

[2] = test system: 293T cells; assay: Fluorescent detection of Fluc-mRNA (cell transfection efficiency of LNP formulations); type: cell-based; details: for Multiples (YK-305): RLU of YK-305 / RLU of the lipid of the line; for Multiples (YK-310): RLU of YK-310 / RLU of the lipid of the line; for Multiples (YK-312): RLU of YK-312 / RLU of the lipid of the line; for Multiples (YK-318): RLU of YK-318 / RLU of the lipid of the line; for Multiples (YK-318) / Multiples (YK-319): Tables 5, 7, 11; for Multiples (YK-319): RLU of YK-319 / RLU of the lipid of the line; for Ratio relative to SM-102: RLU of the lipid / RLU of SM-102, times that of SM-102; for Relative light unit (RLU): LNP formulation of Fluc-mRNA, 96-well plate, 24 hours
Method: (§2) Cell recovery and passage: 293T cells were recovered, cultured in a culture dish, and passaged to the required number of cells.
(§3) Seeding plate: The cells in the culture dish were digested and counted. Cells were spread in a 96-well plate at 10,000 cells per well and in a 12-well plate at 150,000 cells per well. Cells were cultured overnight until the cells adhered to the wall.
(§4) Cell recovery and passage: the method was the same as in Example 3.
(§5) Seeding plate: the method was the same as in Example 3.
An LNP formulation containing […] of Fluc-mRNA (the carrier components of the LNP formulation were cationic lipid, neutral lipid, structured lipid and polymer-conjugated lipid with a molar ratio of 49:10:39.5:1.5, wherein the cationic lipid was listed in Table 1) was added to the cell culture medium of a 96-well plate, and further incubated for 24 hours. The corresponding reagent was added according to the instructions of the […] Luciferase Assay Kit, and the fluorescence expression intensity of each well was detected by an IVIS fluorescence detection system. This test verified the transfection efficiencies of LNP formulations in cells, see Tables 4-7 for specific test results.

[3] = Particle size and polydispersity index (PDI) of lipid nanoparticles by dynamic light scattering; type: physicochemical; details: LNP formulation prepared from the cationic lipid, 25° C.
Method: The particle size and polydispersity index (PDI) were determined by dynamic light scattering using Malvern laser particle size analyzer.
10 μL of the liposome solution was weighed, diluted to 1 mL with RNase-free deionized water, and added to the sample pool. Each sample was measured in triplicate. The measurement conditions were: […] scattering angle, and 25° C.

[4] = test system: 293T cells; assay: Cell survival rate determination (CCK-8); type: cell-based; details: LNP formulation of Fluc-mRNA, 24 hours, CCK-8
Method: as §2, §3, §4, §5
An LNP formulation containing […] of Fluc-mRNA (the carrier components of the LNP formulation were cationic lipid, neutral lipid, structured lipid and polymer-conjugated lipid with a molar ratio of 49:10:39.5:1.5, wherein the cationic lipid was listed in Table 1) and the formulation of Lipofectamine 3000 were added to the cell culture medium of a 96-well plate, and further cultivated for 24 hours. 10 μL of CCK-8 solution was then added to each well, and the culture plate was incubated in an incubator for 1 hour. The absorbance at 450 nm was measured by a microplate reader.
Cell survival rate can represent the toxicity of cationic lipids to cells. The higher the cell survival rate, the lower the toxicity to cells.

[5] = test system: liver; assay: Distribution of liposomes in mice: protein expression in the liver (live imaging); type: in vivo; details: at 6 h, intramuscular injection
Method: as §1
At 24 h, the LNP formulations prepared from all compounds had been metabolized in the liver and had no protein expression.

[6] = 6 h after intramuscular injection
[7] = 24 h after intramuscular injection
[8] = 48 h after intramuscular injection
[9] = 7 d after intramuscular injection

Structure (SMILES)	average radiation intensity [1, 6]	average radiation intensity [1, 7]	average radiation intensity [1, 8]	average radiation intensity [1, 9]	Multiples (YK-305) [2]	Multiples (YK-310) [2]	Multiples (YK-312) [2]	Multiples (YK-318) [2]	Multiples (YK-319) [2]	Ratio relative to SM-102 [2]	PDI (%) [3] [%]	Particle size (nm) [3] [nm]	Cell survival rate (%) [4] [%]	protein expression in the liver [5]	Relative light unit (RLU) [2] [RLU]
CCCCCCCCC(CCCCCC)C(=O)OCCCCCCN(CCCCO)CCCCCCOC(=O)C(CCCCCC)CCCCCCCC (centres unmarked) [ALC-0315, reference compound]	863760	190480	39810	7047	13.48	12.69	9.91	5.50	12.03	1.27	21.2	231	51.03	had protein expression in the liver	
CCCCCCCCC(CCCCCCCC)OC(=O)CCCCCCCN(CCO)CCCCCCCC(=O)OCCC(CCCCCC)CCCCCC [Compound 21, reference compound]	610340	109840	30980	6445	19.14	18.01	14.07	7.81	17.08	0.89			70.21	had protein expression in the liver	1432170
CCCCCCC(CCCCCC)CCOC(=O)CCCCCCCN(CCO)CCCCCCCC(=O)OCCC(CCCCCC)CCCCCC [Compound 23, bis(3-hexylnonyl)-8,8′-((2-hydroxyethyl)azanediyl)dioctanoate, reference compound]	589400	104530	33125	6240	20.21	19.02	14.86	8.25	18.04	0.85	15.2	147	71.50	had protein expression in the liver	1356022
CCCCCCCCCCCCC(O)CN(C)CCCCCC(=O)OCC(CCCCCC)CCCCCCCC (centres unmarked) [HHMA, reference compound]	651020	119940	32557	5871	13.66	12.86	10.04	5.58	12.20	1.25	19.3	150	66.47	had protein expression in the liver	2006110
CCCCCCCCCCCOC(=O)CCCCCN(CCO)CCCCCCCC(=O)OC(CCCCCCCC)CCCCCCCC [SM-102, reference compound]	701230					16.08	12.56	6.98	15.25	1.00	28.2	177	69.45	had protein expression in the liver	
CCCCCCCCC(CCCCCCCC)OC(=O)CCCCCN(CCCCCC(=O)OC(CCCCCCCC)CCCCCCCC)C[C@H](O)CN(CC)CCO [YK-313]	442180	104430	25560	3235	31.63	29.77	23.25			0.54	17.7	241	68.93	no protein expression in the liver	866536
